Data published in US8470810B2, “Heterocyclic compounds suitable for treating disorders that respond to modulation of the dopamine D3 receptor” (Abbott GmbH & Co. KG, priority 2004, dated 2013).

Tests used:
[1] = target: T1, human dopamine D3 receptors (Homo sapiens, UniProt P35462); experiment: Dopamine D3 receptor binding, displacement of [125I]-iodosulpride; conditions: for Ki: membranes of HEK-293 cells stably expressing human D3, 0.1 nM [125I]-iodosulpride, 25° C., 60 minutes; for Ki(D2)*/Ki(D3)*: selectivity ratio of the receptor binding constants D2 over D3
T1 construct: expressed in transfected cells
T1 sequence (P35462 whole entry): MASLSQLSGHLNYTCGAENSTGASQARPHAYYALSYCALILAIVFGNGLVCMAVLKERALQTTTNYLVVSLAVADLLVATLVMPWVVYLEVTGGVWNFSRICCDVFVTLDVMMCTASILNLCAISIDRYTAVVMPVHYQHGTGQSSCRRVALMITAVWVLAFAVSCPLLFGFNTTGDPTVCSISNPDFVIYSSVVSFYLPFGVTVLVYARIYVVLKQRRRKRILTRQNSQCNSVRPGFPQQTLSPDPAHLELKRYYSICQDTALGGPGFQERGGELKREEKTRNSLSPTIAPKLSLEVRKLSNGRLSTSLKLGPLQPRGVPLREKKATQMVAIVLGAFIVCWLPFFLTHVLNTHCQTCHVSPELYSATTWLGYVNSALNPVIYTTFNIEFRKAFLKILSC
In short: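 Displacement of [125I]-iodosulpride at human D3 receptors in pH 7.4 Tris buffer with NaCl, KCl, CaCl2, MgCl2, 0.1% BSA, 10 μM quinolone and 0.1% ascorbic acid, 60 min at 25 °C, in triplicate. Bound label collected by filtration and counted; Ki from nonlinear regression of inhibition curves.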

[2] = target: T2, human dopamine D2L receptors (long isoform) (Homo sapiens, UniProt P14416); experiment: Dopamine D2L receptor binding, displacement of [125I] iodospiperone; conditions: membranes of HEK-293 cells stably expressing human D2L; 0.01 nM [125I] iodospiperone; 25° C., 60 minutes; read-out: Ki(D2)*
T2 construct: expressed in transfected cells
T2 sequence (P14416 whole entry, canonical isoform): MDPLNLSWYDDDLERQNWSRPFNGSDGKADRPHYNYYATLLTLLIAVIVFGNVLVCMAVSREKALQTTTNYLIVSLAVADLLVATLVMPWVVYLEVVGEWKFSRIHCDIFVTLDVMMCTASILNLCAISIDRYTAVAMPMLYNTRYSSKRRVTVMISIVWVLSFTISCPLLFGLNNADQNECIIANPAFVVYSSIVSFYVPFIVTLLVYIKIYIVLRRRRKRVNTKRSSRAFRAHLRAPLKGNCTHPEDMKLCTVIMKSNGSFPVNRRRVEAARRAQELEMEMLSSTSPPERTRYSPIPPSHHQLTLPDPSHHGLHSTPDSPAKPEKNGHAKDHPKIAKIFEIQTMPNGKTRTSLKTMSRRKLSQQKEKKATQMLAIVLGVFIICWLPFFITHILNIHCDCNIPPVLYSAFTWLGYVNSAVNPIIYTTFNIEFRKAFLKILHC
In short: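 Displacement of [125I]iodospiperone from human D2L receptors, triplicates, in 50 mM Tris pH 7.4 with 120 mM NaCl, 5 mM KCl, 2 mM CaCl2, 2 mM MgCl2, 0.1% BSA. Incubated 60 min at 25 °C, then filtered and counted by scintillation. Ki came from iterative nonlinear regression of inhibition curves.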

In the case of `C=CCN1CC[C@@H](c2ccc(NS(=O)(=O)c3ccc(CCCF)cc3)cc2)C1` [Example 107, N-[4-((S)-1-Allyl-pyrrolidin-3-yl)-phenyl]-4-(3-fluoro-propyl)-benzene sulfonamide], the Ki [1] is reported as 0.42 nM, the “Ki(D2)*/Ki(D3)*” value [1] is reported as 108 and the Ki [2] is reported as 45.8 nM.
`O=S(=O)(Nc1ccc([C@@H]2CCNC2)cc1)c1ccc(CCCF)cc1` [Example 108, 4-(3-Fluoro-propyl)-N—((S)-4-pyrrolidin-3-yl-phenyl)-benzenesulfonamide] was tested, and the Ki [1] was 11.2 nM, the “Ki(D2)*/Ki(D3)*” value [1] was 18 and the Ki [2] was 204 nM.
For `C[C@H](CF)c1ccc(S(=O)(=O)Nc2ccc([C@@H]3CCNC3)cc2)cc1` [Example 109, 4-((S)-2-Fluoro-1-methyl-ethyl)-N—((S)-4-pyrrolidin-3-yl-Phenyl)-benzenesulfonamide], the Ki [1] was 7.4 nM, the “Ki(D2)*/Ki(D3)*” value [1] was 35 and the Ki [2] was 258 nM.
In the case of `C[C@@H](CF)c1ccc(S(=O)(=O)Nc2ccc([C@@H]3CCNC3)cc2)cc1` [Example 110, 4-((R)-2-Fluoro-1-methyl-ethyl)-N—((S)-4-pyrrolidin-3-yl-phenyl)-benzenesulfonamide], the Ki [1] is reported as 6.6 nM, the “Ki(D2)*/Ki(D3)*” value [1] is reported as 135 and the Ki [2] is reported as 895 nM.
With `CN1CC[C@@H](c2ccc(NS(=O)(=O)c3ccc(OC(F)(F)F)cc3)cc2)C1` [Example 111, N-[4-((S)-1-Methyl-pyrrolidin-3-yl)-phenyl]-4-trifluoromethoxy-benzenesulfonamide] the Ki [1] was 16.4 nM, the “Ki(D2)*/Ki(D3)*” value [1] was 44 and the Ki [2] was 723 nM.
In the case of `C=CCN1CC[C@H](c2ccc(NS(=O)(=O)c3ccc(C(C)C(F)(F)F)cc3)cc2)C1` (stereo partly drawn) [Example 112, N-[4-((R)-1-Allyl-pyrrolidin-3-yl)-phenyl]-4-(2,2,2-trifluoro-1-methyl-ethyl)benzenesulfonamide], the Ki [1] is reported as 10.3 nM, the “Ki(D2)*/Ki(D3)*” value [1] is reported as 116 and the Ki [2] is reported as 1200 nM.
In the case of `C=CCN1CC[C@@H](c2ccc(NS(=O)(=O)c3ccc([C@@H](C)CF)cc3)cc2)C1` [Example 113, N-[4-((S)-1-Allyl-pyrrolidin-3-yl)-phenyl]-4-((R)-2-fluoro-1-methyl-ethyl)benzenesulfonamide], the Ki [1] is reported as 0.49 nM, the “Ki(D2)*/Ki(D3)*” value [1] is reported as 86 and the Ki [2] is reported as 42.2 nM.
In the case of `O=S(=O)(Nc1ccc([C@@H]2CCN(CCCF)C2)cc1)c1ccc(OC(F)(F)F)cc1` [Example 114, N-{4-[(S)-1-(3-Fluoro-propyl)-pyrrolidin-3-yl]-phenyl}-4-trifluoromethoxy-benzenesulfonamide], the Ki [1] is reported as 4.2 nM, the “Ki(D2)*/Ki(D3)*” value [1] is reported as 111 and the Ki [2] is reported as 464 nM.
In the case of `CCCN1CC[C@@H](c2ccc(NS(=O)(=O)c3ccc(-c4cnn(C)c4)cc3)cc2)C1` [Example 118, 4-(1-Methyl-1H-pyrazol-4-yl)-N-[4-((S)-1-propyl-pyrrolidin-3-yl)-phenyl]-benzenesulfonamide], the Ki [1] is reported as 36.6 nM, the “Ki(D2)*/Ki(D3)*” value [1] is reported as 32 and the Ki [2] is reported as 1170 nM.
In the case of `CCCN1CC[C@@H](c2ccc(NS(=O)(=O)c3ccc(N4CCOCC4)cc3)cc2)C1.Cl` [Example 120, 4-Morpholin-4-yl-N-[4-((S)-1-propyl-pyrrolidin-3-yl)-phenyl]-benzenesulfonamide hydrochloride], the Ki [1] is reported as 2 nM, the “Ki(D2)*/Ki(D3)*” value [1] is reported as 86 and the Ki [2] is reported as 174 nM.
For `CCCN1CC[C@@H](c2ccc(NS(=O)(=O)c3ccc(OCc4ccccc4)cc3)cc2)C1` [Example 121, 4-Benzyloxy-N-[4-((S)-1-propyl-pyrrolidin-3-yl)-phenyl]-benzenesulfonamide], the Ki [1] was 3.7 nM, the “Ki(D2)*/Ki(D3)*” value [1] was 44 and the Ki [2] was 163 nM.
For `CCCN1CC[C@@H](c2ccc(NS(=O)(=O)c3ccc(O)cc3)cc2)C1` [Example 122, 4-Hydroxy-N-[4-((S)-1-propyl-pyrrolidin-3-yl)-phenyl]-benzenesulfonamide], the Ki [1] was 43.9 nM, the “Ki(D2)*/Ki(D3)*” value [1] was 31 and the Ki [2] was 1340 nM.
For `C=Cc1ccc(S(=O)(=O)Nc2ccc([C@@H]3CCN(CCC)C3)cc2)cc1` [Example 123, N-[4-((S)-1-Propyl-pyrrolidin-3-yl)-phenyl]-4-vinyl-benzenesulfonamide], the Ki [1] was 0.45 nM, the “Ki(D2)*/Ki(D3)*” value [1] was 91 and the Ki [2] was 41 nM.
With `CCCN1CC[C@@H](c2ccc(NS(=O)(=O)c3ccc(F)cc3)cc2)C1.Cl` [Example 125, 4-Fluoro-N-[4-((S)-1-propyl-pyrrolidin-3-yl)-phenyl]-benzenesulfonamide hydrochloride] the Ki [1] was 19.5 nM, the “Ki(D2)*/Ki(D3)*” value [1] was 67 and the Ki [2] was 1300 nM.
For `CCCN1CC[C@@H](c2ccc(NS(=O)(=O)c3ccc(F)c(F)c3)cc2)C1.Cl` [Example 126, 3,4-Difluoro-N-[4-((S)-1-propyl-pyrrolidin-3-yl)-phenyl]-benzenesulfonamide hydrochloride], the Ki [1] was 34 nM, the “Ki(D2)*/Ki(D3)*” value [1] was 30 and the Ki [2] was 1020 nM.
For `CCCN1CC[C@@H](c2ccc(NS(=O)(=O)c3ccc(N4CCC(F)(F)C4)cc3)cc2)C1` [Example 127, 4-(3,3-Difluoro-pyrrolidin-1-yl)-N-[4-((S)-1-propyl-pyrrolidin-3-yl)-phenyl]-benzenesulfonamide], the Ki [1] was 0.6 nM, the “Ki(D2)*/Ki(D3)*” value [1] was 112 and the Ki [2] was 64.7 nM.
For `CC(C)c1ccc(S(=O)(=O)Nc2ccc(C3CCN(Cc4ccccc4)C3)c(F)c2)cc1` (stereo not drawn) [Example 128, N-[4-(1-Benzyl-pyrrolidin-3-yl)-3-fluoro-phenyl]-4-isopropyl-benzenesulfonamide], the Ki [1] was 2.7 nM, the “Ki(D2)*/Ki(D3)*” value [1] was 5 and the Ki [2] was 12.9 nM.
With `CC(C)c1ccc(S(=O)(=O)Nc2ccc(C3CCNC3)c(F)c2)cc1` (stereo not drawn) [Example 129, N-(3-Fluoro-4-pyrrolidin-3-yl-phenyl)-4-isopropyl-benzenesulfonamide] the Ki [1] was 3.6 nM, the “Ki(D2)*/Ki(D3)*” value [1] was 30 and the Ki [2] was 106 nM.
In the case of `CCCN1CCC(c2ccc(NS(=O)(=O)c3ccc(C(C)C)cc3)cc2F)C1.Cl` (stereo not drawn) [Example 130, N-[3-Fluoro-4-(1-propyl-pyrrolidin-3-yl)-phenyl]-4-isopropyl-benzenesulfonamide, hydrochloride], the Ki [1] is reported as 0.52 nM, the “Ki(D2)*/Ki(D3)*” value [1] is reported as 16 and the Ki [2] is reported as 8.5 nM.
`CCCN1CCC[C@@H](c2ccc(NS(=O)(=O)c3ccc(OC(F)(F)F)cc3)cc2)C1` [Example 133, N-[4-((S)-1-Propyl-piperidin-3-yl)-phenyl]-4-trifluoromethoxy-benzenesulfonamide] was tested, and the Ki [1] was 7.3 nM, the “Ki(D2)*/Ki(D3)*” value [1] was 26 and the Ki [2] was 193 nM.
“N-[4-((S)-1-Propyl-pyrrolidin-3-yl)-phenyl]-4-pyrrol-1-yl-benzenesulfonamide [Example 74]” was tested, and the Ki [1] was 0.69 nM, the “Ki(D2)*/Ki(D3)*” value [1] was 15 and the Ki [2] was 10.5 nM.
